Patent US4863949A, “Aminopropanol derivatives, processes for the preparation thereof, the use thereof and pharmaceutical compositions containing them” (Boehringer Mannheim GmbH, priority 1985, dated 1989)
Structures can show the parent of a compound that is named as a salt.

System: livers
Assay: denitration rate in perfused rat livers relative to isosorbide-5-mononitrate (nitrate-like action)
Set-up: species or system rats
Conditions: rat livers perfused 4 min, equimolar 5×10^-5 M/l; freed NO2 in perfusate; high = fast denitration

| SMILES | Vrel (denitration rate in relation to isosorbide-5-mononitrate) |
| --- | --- |
| Cn1cnc2cccc(OCC(O)CNC(C)(C)CNC(=O)O[C@H]3CO[C@H]4[C@@H]3OC[C@H]4O[N+](=O)[O-])c21 (stereo partly shown) [Example 11, 3-[1,1-Dimethyl-2-[(5-O-nitroisosorbid-2-yloxy)-carbonylamino]-ethylamino]-1-(3-methylbenzimidazol-4-yloxy)-propan-2-ol fumarate] | 1,23 |
| CC(CCC(=O)NCCNCC(O)COc1cccc2c1CC(=O)N2)O[N+](=O)[O-] (stereo not shown) [2 (29.), 3-[2-(4-nitroxypentanoylamino)-ethylamino]-1-(2-oxoindolin-4-yloxy)-propan-2-ol cyclamate] | 0,86 |
| O=[N+]([O-])O[C@@H]1CO[C@H]2[C@@H]1OC[C@@H]2O [Isosorbide-5-mononitrate, isosorbide-5-mononitrate, reference compound] | 0,86 |
| O=C(CCCO[N+](=O)[O-])NCCNCC(O)COc1cccc2[nH]ccc12 (stereo not shown) [2 (11.), 1-indol-4-yloxy)-3-[2-(4-nitroxybutanoylamino)-ethylamino]-propan-2-ol hemifumarate] | 0,95 |
| O=C(CCCCO[N+](=O)[O-])NCCNCC(O)COc1cccc2c1CC(=O)N2 (stereo not shown) [2 (31.), 3-[2-(5-nitroxypentanoylamino)-ethylamino]-1-(2-oxoindolin-4-yloxy)-propan-2-ol hemifumarate] | 0,66 |
| O=C(CCCO[N+](=O)[O-])NCCNCC(O)COc1cccc2c1CC(=O)N2.O=C(O)/C=C/C(=O)O (stereo not shown) [2 (17.), 3-[2-(4-nitroxybutanoylamino)-ethylamino]-1-(2-oxoindolin-4-yloxy)-propan-2-ol fumarate] | 0,75 |
| CC(C)(CNC(=O)CCCO[N+](=O)[O-])NCC(O)COc1ccccc1C#N.O=C(O)/C=C/C(=O)O (stereo not shown) [2 (48.), 1-(2-cyanophenoxy)-3-[1,1-dimethyl-2-(4-nitroxybutanoylamino)-ethylamino]-propan-2-ol fumarate] | 0,94 |
| Cc1ccc(Cl)c(OCC(O)CNC(C)(C)CNC(=O)CCCO[N+](=O)[O-])c1 (stereo not shown) [2 (46.), 1-(2-chloro-5-methylphenoxy)-3-[1,1-dimethyl-2-(4-nitroxybutanoylamino)-ethylamino]-propan-2-ol cyclamate] | 0,97 |
| CC(=O)Oc1c(C)cc(OCC(O)CNC(C)(C)CNC(=O)CCCO[N+](=O)[O-])c(C)c1C.O=C(O)/C=C/C(=O)O (stereo not shown) [8 (15.), 3-[1,1-dimethyl-2-(4-nitroxybutanoylamino)-ethylamino]-1-(4-methylcarbonyloxy-2,3,5-trimethylphenoxy)-propan-2-ol fumarate] | 1,19 |
| C=CCc1ccccc1OCC(O)CNC(C)(C)CNC(=O)CCCO[N+](=O)[O-] (stereo not shown) [2 (72.), 1-(2-allylphenoxy)-3-[1,1-dimethyl-2-(4-nitroxybutanoylamino)-ethylamino]-propan-2-ol cyclamate] | 0,54 |
